# Measurements from the supplement of paper PMC10307832.
# Experiments:
# Assay in all cases: relative viability (nuclei count vs DMSO), 5 days (fraction); higher = more cells survive
# AZD5582 + OSI-027 = compound: C[C@@H](C(=O)N[C@@H](C1CCCCC1)C(=O)N2CCC[C@H]2C(=O)N[C@@H]3[C@@H](CC4=CC=CC=C34)OCC#CC#CCO[C@@H]5CC6=CC=CC=C6[C@@H]5NC(=O)[C@@H]7CCCN7C(=O)[C@H](C8CCCCC8)NC(=O)[C@H](C)NC)NC [AZD5582] + COc1cccc2cc(-c3nc([C@H]4CC[C@H](C(=O)O)CC4)n4ncnc(N)c34)[nH]c12 [OSI-027] (partner 0.5 µM)
# Outline: (§1)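 Each reported value is a median over duplicate plates. It expresses relative viability: treated-well nuclei count divided by vehicle-well nuclei count. Lung cancer cell lines in 1536-well plates were dosed by pin tool a day after seeding, alone with one drug or with a fixed anchor-drug dose plus five library-drug doses (not always all listed) in √10 steps, and nuclei were counted after 5 days.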
# AZD5582 + Vorinostat = compound: C[C@@H](C(=O)N[C@@H](C1CCCCC1)C(=O)N2CCC[C@H]2C(=O)N[C@@H]3[C@@H](CC4=CC=CC=C34)OCC#CC#CCO[C@@H]5CC6=CC=CC=C6[C@@H]5NC(=O)[C@@H]7CCCN7C(=O)[C@H](C8CCCCC8)NC(=O)[C@H](C)NC)NC [AZD5582] + O=C(CCCCCCC(=O)Nc1ccccc1)NO [Vorinostat] (partner 1 µM)
# Outline: as §1
# [1] = compound: Cn1nnc2c(C(N)=O)ncn2c1=O [Temozolomide] + CC1(C)CCC(c2ccc(Cl)cc2)=C(CN2CCN(c3ccc(C(=O)NS(=O)(=O)c4ccc(N[C@H](CCN5CCOCC5)CSc5ccccc5)c(S(=O)(=O)C(F)(F)F)c4)cc3)CC2)C1 [Navitoclax] (partner 0.5 µM)
# Outline: as §1
# [2] = compound: Cn1nnc2c(C(N)=O)ncn2c1=O [Temozolomide] + C[C@]1(O)C[C@@H](c2nc(-c3ccc4ccc(-c5ccccc5)nc4c3)c3c(N)nccn32)C1 [Linsitinib] (partner 1 µM)
# Outline: as §1
Cell Line,relative viability (AZD5582 + OSI-027; first compound 0.001581 µM),relative viability (AZD5582 + OSI-027; first compound 0.005 µM),relative viability (AZD5582 + OSI-027; first compound 0.01581 µM),relative viability (AZD5582 + OSI-027; first compound 0.05 µM),relative viability (AZD5582 + Vorinostat; first compound 0.001581 µM),relative viability (AZD5582 + Vorinostat; first compound 0.005 µM),relative viability (AZD5582 + Vorinostat; first compound 0.01581 µM),relative viability (AZD5582 + Vorinostat; first compound 0.05 µM),relative viability ([1]; first compound 0.2 µM),relative viability ([1]; first compound 0.6325 µM),relative viability ([1]; first compound 2 µM),relative viability ([1]; first compound 6.325 µM),relative viability ([1]; first compound 20 µM),relative viability ([2]; first compound 0.2 µM),relative viability ([2]; first compound 0.6325 µM),relative viability ([2]; first compound 2 µM),relative viability ([2]; first compound 6.325 µM),relative viability ([2]; first compound 20 µM)
LU99A,0.259,0.295,0.243,0.287,0.503,0.482,0.466,0.591,0.894,0.781,0.733,0.713,0.746,0.595,0.514,0.551,0.564,0.572
LXF-289,0.71,0.907,0.495,0.792,0.698,0.779,0.641,0.905,0.98,0.91,0.946,0.937,0.847,0.933,0.939,0.954,0.938,0.876
NCI-H23,0.403,0.45,0.245,0.21,0.445,0.583,0.483,0.448,1.04,0.93,0.857,0.86,0.851,0.596,0.541,0.698,0.668,0.5
NCI-H322M,0.508,0.713,,0.562,0.924,1.01,0.97,1.17,,1.36,1.28,1.21,0.967,,1.02,1.02,0.959,0.665
NCI-H441,0.536,0.582,,0.651,0.723,0.708,0.889,0.921,0.692,0.628,0.926,0.542,0.789,0.651,0.601,0.548,0.451,0.529
NCI-H460,0.614,0.774,0.642,0.779,0.655,0.686,0.697,1.01,1.28,1.08,1.22,1.22,1.18,0.959,0.801,0.79,0.727,0.877
NCI-H520,0.261,0.21,0.224,0.269,0.833,0.724,0.758,0.712,1.13,1.09,1.15,1.12,1.01,1.03,0.904,0.98,0.941,1.04
NCI-H596,,,0.614,0.334,0.506,,0.629,0.527,0.9,0.924,0.946,0.977,0.981,1.16,1.08,1.02,1.09,1.02
NCI-H647,0.599,0.704,0.463,0.75,0.353,0.515,0.635,0.585,1.16,1.24,1.24,0.73,0.291,1.27,1.2,1.15,0.776,0.295
NCI-H727,0.51,0.473,0.508,0.529,1.06,1.13,1.01,1.16,0.409,0.428,0.496,0.469,0.324,0.287,0.329,0.196,0.224,0.233
NCI-H838,0.339,0.423,,0.449,0.716,0.775,0.855,0.956,1.13,1.11,1.17,1.19,1.17,1.03,1.05,1.03,1.08,1.09
NCI-H1355,0.355,0.468,0.288,0.322,0.568,0.711,0.535,0.596,0.837,0.927,0.964,0.927,0.913,0.713,0.859,0.796,0.883,0.794
NCI-H1395,0.7,0.734,0.583,0.767,0.721,0.789,,0.768,1.26,1.14,1.14,1.1,1.05,0.821,1.05,1.31,0.978,1.04
NCI-H1437,0.787,0.893,0.77,0.94,0.711,0.751,0.838,0.743,1.15,1.12,1.13,1.13,1.17,1.15,1.02,1.11,1.01,1.14
NCI-H1651,0.667,0.813,,0.983,0.525,0.557,0.56,0.584,1.15,1.01,1.07,0.958,1,0.998,0.99,1.14,1.04,0.969
NCI-H1666,0.65,0.696,0.808,0.874,0.848,0.891,1.05,0.958,0.831,0.933,0.764,0.768,0.454,0.69,0.713,0.616,0.688,0.482
NCI-H1734,0.691,0.704,0.595,0.594,0.754,0.85,0.889,0.877,0.803,0.854,0.886,0.811,0.835,0.824,0.811,0.986,0.865,0.845
NCI-H1755,0.567,0.673,0.58,0.659,0.775,0.863,0.688,0.88,1.07,0.982,1.01,0.971,0.727,1.01,0.98,1.04,1,0.801
